The METLIN SMRT retention time set (Domingo-Almenara et al. 2019)

experiment: gradient 5% acetonitrile 3 min, to 50% in 2 min, to 85% in 15 min, held 3 min, 100 µL/min; conditions: column: Zorbax Extend-C18 2.1 x 50 mm; eluents: water / acetonitrile, 0.1% formic acid
Method in brief: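 Retention times of pure standards were taken from adduct peaks that were selected by computer and manually inspected. Over 3 months, mixtures of ~100 molecules were run by HPLC–quadrupole time-of-flight mass spectrometry in positive and negative ionization mode. The Zorbax Extend-C18 column (2.1 × 50 mm, 1.8 μm) ran at 100 μL/min in water and acetonitrile, each containing 0.1% formic acid, with 40 μL dead volume and 900 μL dwell volume.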

| RP-LC retention time [s] | Compound |
| --- | --- |
| 870 | CC(C)(C)c1ccc(OCC(=O)Nc2ccc(CC(=O)N3CCOCC3)cc2)cc1 |
| 590 | O=C(COc1ccc(NC(=O)C2CC2)cn1)NC1CCN(Cc2ccccc2)CC1 |
| 966 | Cc1cc(-c2nnc(-c3ccccc3)o2)c(C)n1CC(=O)NCc1ccccc1Cl |
| 891 | Cc1ccccc1Cn1nc2ccc(S(=O)(=O)N3CCCC3)cn2c1=O |
| 759 | Cc1c(C(=O)O)nnn1-c1ccc2c(c1)CCC2 |
| 628 | CC(C)(C)NCC(O)COc1ccc(NC(=O)NC2CCCCC2)cc1 (stereo not given) |
| 1190 | CCc1ccc(S(=O)(=O)N2CCc3nc(-c4ccc(F)cc4)ncc3C2)cc1 |
| 971 | CS(=O)(=O)N1CCCc2ccc(NC(=O)Nc3ccc(Cl)c(Cl)c3)cc21 |
| 759 | CC1CCN(c2ncc(NC(=O)c3ccc(Br)cc3)cc2C(=O)O)CC1 |
| 1180 | O=C(Nc1cccc2c(=O)cc(-c3nn[nH]n3)oc12)c1ccc(OCCCCc2ccccc2)cc1 |
| 1030 | O=S(=O)(c1cc(-c2nnc(C3CCC3)o2)co1)N1CCc2ccccc2C1 |
| 596 | O=C(c1ccccc1OCC1CCCNC1)N1CCCC1 (stereo not given) |
| 815 | Cc1ccc(CCNC(=O)C2CCCN(c3nnc(C)c4c(C)n(-c5ccc(C)cc5)nc34)C2)cc1 (stereo not given) |
| 705 | CCCNC(=O)C1CCCN(c2nc3ncn(CC(=O)Nc4cc(F)ccc4C)c(=O)c3s2)C1 (stereo not given) |
| 713 | CCCOc1nccnc1NC1CCN(C(=O)c2ccsc2)CC1 |
| 700 | Cc1noc(C2CN(C(=O)Nc3ccccc3C)CC23CCOCC3)n1 (stereo not given) |
| 862 | C[C@H]1CN(C(=O)c2nn(C)c3ccccc23)C[C@@H]1c1nc(-c2cccnc2)no1 |

| RP-LC retention time [s] | Compound |
| --- | --- |
| 827 | COc1ccc2[nH]cc(CCNC(=O)C(C)C3CCN(S(=O)(=O)c4cccs4)CC3)c2c1 (stereo not given) |
| 770 | Cc1nnc2ccc(-c3noc(-c4ccccc4F)n3)cn12 |
| 1110 | CCOc1ccc(N2CCCCn3c2nc2c3c(=O)n(CC(C)C)c(=O)n2C)cc1 |
| 761 | COc1ccccc1CC(=O)N1CCCC1c1cc(C)on1 (stereo not given) |
| 864 | COc1ccc(C)cc1NC(=O)C1CCCN(c2ncnc3c2nc2n3CCCCC2)C1 (stereo not given) |
| 840 | Cc1noc(-c2cc(=O)n(CC(=O)Nc3ccccc3)c3ccccc23)n1 |
| 732 | Cc1cc(CC(=O)N2CC(F)(F)C[C@H]2c2nc(C)no2)on1 |
| 754 | O=C(NCc1ccc(F)cc1)C1CCCN(c2ccc3cc(S(=O)(=O)N4CCCC4)ccc3n2)C1 (stereo not given) |
| 854 | Cn1cc(C(=O)NCc2ccc3c(c2)OCO3)c(S(=O)(=O)N2CCCCC2)n1 |
| 875 | Cc1ccc(NC(=O)Cn2c(=O)n(-c3ccc(F)cc3)c3ncccc32)c(C)c1 |
| 630 | CCOc1ccc(NC(=O)Cn2c(N)nc(CC)cc2=O)cc1 |
| 1010 | CCc1cc(C(=O)NC2CC2)nc2cc(-c3cccs3)nn12 |
| 1150 | Cc1ccc(C)c(-c2csc(Nc3ccc(F)cn3)n2)c1 |
| 661 | O=C(CN1CCc2[nH]c3c(F)c(Cl)ccc3c(=O)c2C1)NCc1ccc2c(c1)OCO2 |
| 1170 | CCCCOc1ccc(C(=O)NC2(c3nc(-c4cccnc4)no3)CCCCC2)cc1 |
| 895 | Cc1ccc(CN2N=C(C(=O)N3CCCC3)S(=O)(=O)c3ccccc32)cc1 |

More lines, now with the values behind:

| Compound | RP-LC retention time [s] |
| --- | --- |
| COc1ccc(N2CCN(C(=O)c3cn4nc(Cl)ccc4n3)CC2)cc1 | 714 |
| O=C(NC1CC1)c1ccc(OCC2CCN(C(=O)c3ccc(Br)o3)CC2)cc1 | 830 |
| Cc1cnn(CC(=O)N2CCCn3ccnc3C2C2CCCC2)c1 (stereo not given) | 597 |
| CCCc1noc(-c2ccc(-n3ncc(C(=O)NCC)c3C)nc2)n1 | 808 |
| Cc1cc(=O)n(CC(=O)NCc2ccc3c(c2)OCO3)c(-c2ccc(F)cc2)n1 | 940 |
| O=C(Cn1nc2ccc(-c3ccc(Cl)cc3)nn2c1=O)N1CCN(c2ccc(F)cc2)CC1 | 876 |
| COCc1cc(=O)n2c(n1)N(Cc1ccccc1F)CC2 | 660 |
| CCc1ccc(-c2noc(Cn3c(=O)n(-c4cccc(OC)c4)c(=O)c4sccc43)n2)cc1 | 1060 |
| Cc1cc(NC(=O)Cn2nc3c4sc(N(C)C)nc4ncn3c2=O)ccc1Br | 778 |
| CCC(=O)NCCc1csc(C2CCCN(C(=O)CC)C2)n1 (stereo not given) | 591 |
| CCN1C(=O)c2cccnc2Sc2cc(CNC(=O)c3cccnc3SC)ccc21 | 721 |
| CC(C(=O)Nc1ccc(Cl)cc1)C1CCN(C(=O)Nc2ccccc2)CC1 (stereo not given) | 910 |
| CN1C2CC(OC(=O)[C@H](CO)c3ccccc3)CC1C1OC12 (stereo not given in full) | 581 |
| Cc1cc(C)c(-c2csc(Nc3ccc(F)cn3)n2)cc1C | 1210 |
| O=C(Nc1nnc(-c2cc3ccccc3o2)o1)c1ccc(Cl)s1 | 902 |
| CCN1c2cc(F)ccc2C(=O)NC12CCN(C(=O)c1ccccc1)CC2 | 742 |
| CCN1C(=O)c2cccnc2Sc2cc(NC(=O)c3ccc4c(c3)OCO4)ccc21 | 802 |
| CC(C)CNC(=O)N1CCC(CCOc2cccnc2)CC1 | 605 |
| O=C(Nc1cccn2nc(C3CCC3)nc12)c1cccs1 | 861 |

| Compound | RP-LC retention time [s] |
| --- | --- |
| CCCCOc1cccc(C(=O)N(Cc2ccc(Br)o2)C2CCS(=O)(=O)C2)c1 (stereo not given) | 1090 |
| O=C(Cc1csc(NC(=O)c2ccsc2)n1)Nc1nc2c(s1)CCCC2 | 874 |
| Cc1ccc(C(=O)N2[C@H]3CC[C@@H]2c2cnc(-c4ccc(F)cc4)nc2C3)cn1 | 735 |
| Fc1ccc(-c2ccc(-c3nn4c(-c5ccco5)nnc4s3)o2)cc1 | 896 |
| Cc1ccc(-c2nc(CN(c3ccccc3)S(=O)(=O)c3cccs3)c(C)o2)cc1 | 1200 |
| CS(=O)(=O)Nc1ccc(-c2noc(CNC(=O)Cc3ccccc3)n2)cc1 | 722 |
| O=C(c1ccccc1C(F)(F)F)N1CCc2nc(-c3ccc(F)cc3)ncc2C1 | 1020 |
| Cc1ccc(-c2cc(C(=O)NCCCn3ccnc3)c3ccccc3n2)s1 | 684 |
| Cc1cccc(CN2CCCn3nc(C(=O)NCc4cccs4)cc3C2=O)c1 | 874 |
| CCCC(=O)N1CCCC(c2nc(CNC(=O)C3CCC3)cs2)C1 (stereo not given) | 694 |
| Nc1c(CC(=O)O)cccc1C(=O)c1ccc(Br)cc1 | 909 |
| COc1ccc(S(=O)(=O)N2CCN(CCO)CC2)c2ccccc12 | 573 |
| COc1cc2c(cc1OC)C(C1(O)CCCCC1)NCC2 (stereo not given) | 660 |
| CCOCCCNC(=O)N1CCN(c2nc3ccccc3n(Cc3ccccc3)c2=O)CC1 | 914 |
| O=C(Nc1ncccn1)c1c[nH]c2c(Cl)cccc2c1=O | 617 |
| O=C1NC2(CCN(C(=O)c3cccc(Cl)c3)CC2)N=C1c1ccccc1 | 832 |
| Cc1cnc(C2CC2)n1C1CCN(C(=O)C2(c3ccccc3)CC2)CC1 | 636 |
| CCCC(=O)Nc1ccc2c(c1)CN(C(=O)c1ccc(F)c(F)c1)C(C(=O)N(C)C)C2 (stereo not given) | 736 |
| CCc1nncn1C1CCN(S(=O)(=O)c2ccc(C)cc2C)CC1 | 738 |

| Compound | RP-LC retention time [s] |
| --- | --- |
| COc1cccc(CNC(=O)CSc2nccnc2N2CCSCC2)c1OC | 824 |
| Cc1ccc(CNC(=O)Cn2cccc2-c2nc(-c3ccccc3)cs2)o1 | 1050 |
| CCc1nn2c(N3CCN(c4ccccn4)CC3)cc(C)nc2c1-c1ccc(F)cc1 | 686 |
| CCn1c(=O)c(N2CCN(C(=O)Nc3cc(C)cc(C)c3)CC2)nc2ccccc21 | 927 |
| O=C(c1cnn2cccnc12)N1CCCC1c1ccccc1Cl (stereo not given) | 763 |
| COc1ccc(C2(C(=O)N3CCn4c(C)nnc4C3)CC2)cc1 | 584 |
| CC(C)CNC(=O)N1CCN(Cc2nc3cc(C(=O)N(C)C)ccc3o2)CC1 | 579 |
| COCCN1C(=O)Cc2ccccc2C1C(=O)NCc1ccccc1Br (stereo not given) | 775 |
| Cc1ccc(C)c(N2CCN(CC(O)c3ccc4c(c3)OCO4)CC2)c1 (stereo not given) | 732 |
| Cc1nc(-c2csc(S(=O)(=O)N3CCCC(C(=O)Nc4ccc(F)c(Cl)c4)C3)c2)no1 (stereo not given) | 1010 |
| CSc1ccc(-c2nc3ccc(Cl)cn3c2NC2CCCCC2)cc1 | 926 |
| Cc1cc(C)cc(C(=O)Nc2ccc(N3CCN(c4ccccc4)C3=O)nc2)c1 | 1050 |
| COC1CCC12CCN(C(=O)c1ccc(Cc3c(C)n[nH]c3C)o1)CC2 (stereo not given) | 656 |
| Cc1ccc(OCc2nn3c(-c4ccoc4C)nnc3s2)cc1 | 1010 |
| O=C(C1CCN(S(=O)(=O)c2ccc(-c3noc(C4CC4)n3)cc2)CC1)N1CCOCC1 | 805 |
| Cc1cc(F)ccc1NS(=O)(=O)c1cc2n(c1)CCN(C(C)C)C2=O | 773 |
| CN1c2cc(C(=O)NCc3ccc(OC(F)(F)F)cc3)ccc2C(=O)N2CCCCC21 (stereo not given) | 932 |
| Cc1csc(-c2cc(S(=O)(=O)NC3CCCC3)cn2CC(=O)N2CCCCC2)n1 | 934 |
| CC(C)NCC(O)c1ccc(N)c(C#N)c1 (stereo not given) | 563 |
